The source of these data is patent US6211210A, “Diphenyl-1,2,3-thiadiazol-3-oxides, compositions and methods of use” (Merck Frosst Canada & Co., priority 2000, dated 2001).

One test addresses T1, COX-2 (Homo sapiens, UniProt P35354).
T1 construct: incubation of human whole blood with LPS which induces COX-2; endogenous in cells
T1 sequence (P35354 18-604): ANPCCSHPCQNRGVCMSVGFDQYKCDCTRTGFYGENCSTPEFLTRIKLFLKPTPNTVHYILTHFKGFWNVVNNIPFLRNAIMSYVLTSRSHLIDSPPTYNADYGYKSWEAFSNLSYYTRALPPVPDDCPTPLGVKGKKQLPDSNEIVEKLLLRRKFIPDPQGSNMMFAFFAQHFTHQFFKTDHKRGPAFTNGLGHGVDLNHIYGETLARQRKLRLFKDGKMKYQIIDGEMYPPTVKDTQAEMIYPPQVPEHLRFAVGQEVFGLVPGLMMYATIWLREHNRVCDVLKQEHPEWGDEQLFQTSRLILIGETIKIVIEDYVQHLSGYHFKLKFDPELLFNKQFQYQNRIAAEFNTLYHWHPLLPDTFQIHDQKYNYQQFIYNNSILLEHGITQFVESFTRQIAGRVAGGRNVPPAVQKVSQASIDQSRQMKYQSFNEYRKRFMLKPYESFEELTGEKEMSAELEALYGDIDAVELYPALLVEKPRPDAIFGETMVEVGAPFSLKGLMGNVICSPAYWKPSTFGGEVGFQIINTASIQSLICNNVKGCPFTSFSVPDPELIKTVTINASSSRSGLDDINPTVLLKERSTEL
In words: Human whole blood assay: COX-2 (LPS-induced PGE2 production). The conditions noted are these: LPS-induced PGE2, 24 hours at 37° C. Format: cell-based. An excerpt:
(§1) As well, platelets in whole blood contain a large amount of the COX-1 enzyme. Immediately following blood clotting, platelets are activated through a thrombin-mediated mechanism. This reaction results in the production of thromboxane B2 (TxB2) via activation of COX-1. Thus, the effect of test compounds on TxB2 levels following blood clotting can be examined and used as an index for COX-1 activity. Therefore, the degree of selectivity by the test compound can be determined by measuring the levels of PGE2 after LPS induction (COX-2) and TxB2 following blood clotting (COX-1) in the same assay.
Fresh blood was collected in heparinized tubes by venipuncture from both male and female volunteers. The subjects had no apparent inflammatory conditions and had not taken any NSAIDs for at least 7 days prior to blood collection. Plasma was immediately obtained from a 2 mL blood aliquot to use as blank (basal levels of PGE2). […] Five hundred μL aliquots of blood were incubated with either […] vehicle (DMSO) or 2 μL of a test compound at final concentrations varying from 10 nM to 30 μM for 24 hours at 37° C. At the end of the incubation, the blood was centrifuged at 12,000×g for 5 minutes to obtain plasma. Protein in the plasma is precipitated by mixing a 100 μL aliquot of plasma with 400 μL of methanol. The supernatant was assayed for PGE2 using a radioimmunoassay kit (Amersham, RPA#530) after conversion of PGE2 to its methyl oximate derivative according to the manufacturer's procedure.
(§2) In the assay, inhibition is determined by measuring the amount of prostaglandin E2 (PGE2) synthesized in the presence of arachidonic acid, COX-1 or COX-2 and a putative inhibitor.

For the next test, the target named is T2, COX-1 (Homo sapiens, UniProt P23219).
T2 construct: platelets in whole blood contain a large amount of the COX-1 enzyme; endogenous in cells; host or cells: platelets in fresh human whole blood
T2 sequence (P23219 24-599): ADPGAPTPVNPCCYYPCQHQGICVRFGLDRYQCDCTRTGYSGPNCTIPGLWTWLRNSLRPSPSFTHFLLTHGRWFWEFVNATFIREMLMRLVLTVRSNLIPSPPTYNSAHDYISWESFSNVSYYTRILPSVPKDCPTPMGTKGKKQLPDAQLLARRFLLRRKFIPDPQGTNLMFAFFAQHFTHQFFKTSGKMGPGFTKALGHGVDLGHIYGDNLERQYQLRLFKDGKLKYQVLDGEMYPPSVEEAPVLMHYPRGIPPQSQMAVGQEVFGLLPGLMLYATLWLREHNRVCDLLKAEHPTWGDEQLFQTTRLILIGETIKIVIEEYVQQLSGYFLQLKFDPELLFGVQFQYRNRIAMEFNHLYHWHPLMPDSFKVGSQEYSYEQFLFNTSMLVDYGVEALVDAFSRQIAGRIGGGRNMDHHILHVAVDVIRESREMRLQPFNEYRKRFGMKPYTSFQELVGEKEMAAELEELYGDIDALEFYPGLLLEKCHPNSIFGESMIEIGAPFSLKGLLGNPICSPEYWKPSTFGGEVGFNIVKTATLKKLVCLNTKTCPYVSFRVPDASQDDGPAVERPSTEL
Description: Human whole blood assay: COX-1 (clotting-induced TxB2 production). The class given is cell-based. The conditions noted are these: clotting-induced TxB2, 1 hour at 37° C.
Description: as §1
Fresh blood was collected into vacutainer tubes containing no anticoagulants. […] The tubes were vortexed and incubated at 37° C. for 1 hour to allow blood to clot. Serum was obtained by centrifugation (12,000×g for 5 min). Serum protein is precipitated by mixing a 100 μL aliquot of serum with 400 μL of methanol.
as §2

The subject of test [1] is carrageenan paw edema, rats. In words: Rat paw edema assay (carrageenan). Particulars: po, 1 hr before carrageenan, paw volume 3 hr later, read-out: ED50 (edema inhibition in rat paw). The class given is in vivo, Male Sprague-Dawley rats. The method, then: Male Sprague-Dawley rats (150-200 g) were fasted overnight and were given, po, either vehicle (1% methocel or 5% Tween 80), or a test compound. One hr later, a line was drawn using a permanent marker at the level above the ankle in one hind paw to define the area of the paw to be monitored. The paw volume (V0) was measured using a plethysmometer (Ugo-Basile, Italy) based on the principle of water displacement. The animals were then injected subplantarly with 50 ,l of 1% carrageenan solution in saline (FMC Corp, Maine) into the paw using an insulin syringe with a 25-gauge needle (i.e., 500 μg carrageenan per paw). Three hr later, the paw volume (V3) was measured and the increases in paw volume (V3 -V0) were calculated. The animals were sacrificed by CO2 asphyxiation and the absence or presence of stomach lesions scored. Data were compared with the vehicle-control values and percent inhibition calculated. ED50 values were used for comparison. All treatment groups were coded to eliminate observer bias.

As usually defined, the IC50 is the midpoint of a concentration-inhibition curve. Lower therefore signals greater potency. Regarding `CS(=O)(=O)c1ccc(-c2sn[n+]([O-])c2-c2cccc(F)c2)cc1` [Example 3, 4-(3-FLUOROPHENYL)-5-(4-(METHYLSULFONYL)PHENYL-1-2-3-THIADIAZOL-3-OXIDE], the 50% inhibitory concentration (IC50) against COX-2 was found to be 1300 nM; against COX-1, 88000 nM.
As usually defined, the ED50 is the midpoint of the dose-response relation. As to `COc1ccc2c(c1)c(CC(=O)O)c(C)n2C(=O)c1ccc(Cl)cc1` [Indomethacin, reference compound], in test [1], the ED50 was 2 mg/kg.
On COX-2, `CS(=O)(=O)c1ccc(-c2sn[n+]([O-])c2-c2cccc(Cl)c2)cc1` [Example 5, 4-(3-CHLOROPHENYL)-5-(4-(METHYLSULFONYL)PHENYL-1-2-3-THIADIAZOL-3-OXIDE] returned an IC50 of 500 nM. Moreover, the ED50 in test [1] worked out at 1.5 mg/kg.
With `CS(=O)(=O)c1ccc(-c2sn[n+]([O-])c2-c2ccc(F)cc2)cc1` [Example 2, 4-(4-FLUOROPHENYL)-5-(4-(METHYLSULFONYL)PHENYL-1-2-3-THIADIAZOL-3-OXIDE], the IC50 stood at 600 nM on COX-2 and 18000 nM against COX-1. The ED50 in test [1] was found to be 0.5 mg/kg.
Consider `CS(=O)(=O)c1ccc(-c2sn[n+]([O-])c2-c2ccc(F)c(F)c2)cc1` [Example 4, 4-(3,4-DIFLUOROPHENYL)-5-(4-(METHYLSULFONYL)PHENYL-1-2-3-THIADIAZOL-3-OXIDE], for which the results for the IC50 against COX-2 and against COX-1 were 500 nM and 57000 nM, respectively.
For the molecule `CS(=O)(=O)c1ccc(-c2sn[n+]([O-])c2-c2ccccc2)cc1` [Example 1, 4-PHENYL-5-(4-(METHYLSULFONYL)PHENYL-1-2-3--THIADIAZOL-3-OXIDE], the values for the IC50 on COX-2 and against COX-1 were 600 nM and 38000 nM, respectively. In test [1], the ED50 came to 0.9 mg/kg.
